Measured values published in patent publication US6680335B2, “Methods of modulating protein tyrosine kinase function with substituted indolinone compounds” (Sugen, Inc., priority 1998, dated 2004).
Where “and” joins values, the source holds several entries; their conditions need not be identical. Equal entries are not always repeated.

Key:
src protein kinase = target: T1, src protein kinase (Gallus gallus, UniProt P00523); assay: Assay measuring SRC protein kinase activity (phosphorylation of a biotinylated peptide); type: biochemical; conditions: src from transformed yeast lysate, 5 μM ATP; for inhibition at 100 µM: compound at 100 μM; for IC50: cells without %
T1 construct: made in house; host or cells: Schizosaccharomyces pombe strain SP200, pRSP expression plasmids
Description: This assay is used to determine src protein kinase activity measuring phosphorylation of a biotinylated peptide as the readout.
a. Yeast transformed with src.
b. Cell lysates: Yeast cells expressing src are pelleted, washed once with water, re-pelleted and stored at −80° C. until use.
c. N-terminus biotinylated […] is prepared by standard procedures well known to those skilled in the art.
h. […] S. Pombe strain SP200 (h-s leul.32 ura4 ade21O) was grown as described and transformations were pRSP expression plasmids were done by the lithium acetate method (Superti-Furga, supra). Cells were grown in the presence of 1 μM thiamine to repress expression from the nmtl promoter or in the absence of thiamine to induce expression.
a. Preparation of src coated ELISA plate.
1. Coat ELISA plate with 0.5 μg/well anti-src mab in 100 μL of pH 9.6 sodium carbonate buffer at 4° C. overnight.
2. Wash wells once with PBS.
3. Block plate with 0.15 mL 5% milk in PBS for 30 min. at room temperature.
4. Wash plate 5× with PBS.
5. Add 10 μg/well of src transformed yeast lysates diluted in Lysis Buffer (0.1 mL total volume per well). (Amount of lysate may vary between hatches.) Shake plate for 20 minutes at room temperature.
b. Preparation of phosphotyrosine antibody-coated ELISA plate.
1. 4G10 plate: coat 0.5 μg/well 4G10 in 100 μL PBS overnight at 4° C. and block with 150 μL of 5% milk in PBS for 30 minutes at room temperature.
c. Kinase assay procedure.
1. Remove unbound proteins from steps 1-7, above, and wash plates 5× with PBS.
2. Add 0.08 mL Kinase Reaction Mixture per well (containing 10 μL of 10×Kinase Buffer and 10 μM (final concentration) biotin-[…] per well diluted in water.
3. Add 10 μL of compound diluted in water containing 10% DMSO and pre-incubate for 15 minutes at room temperature.
4. Start kinase reaction by adding 10 μL/well of 0.05 mM ATP in water (5 μM ATP final).
5. Shake ELISA plate for 15 min. at room temperature.
6. Stop kinase reaction by adding 10 μL of 0.5 M EDTA per well.
7. Transfer 90 μL supernatant to a blocked 4G10 coated ELISA plate from section B, above.
8. Incubate for 30 min. while shaking at room temperature.
9. Wash plate 5× with TBST.
10. Incubate with Vectastain ELITE ABC reagent (100 μL/well) for 30 min. at room temperature.
11. Wash the wells 5× with TBST.
12. Develop with Turbo TMB.
(§1) The IC50 values were measured for several of the compounds of the invention.

EGFR protein = target: T2, EGFR protein (Homo sapiens, UniProt P00533); assay: ELISA assay measuring the kinase activity of the EGF receptor (captured from A431 cell lysate); type: biochemical
T2 construct: Add 120 μL TBS to ELISA plate containing captured EGFR; endogenous in cells; host or cells: A431 cells (lysate, captured with SUMO1 anti-EGFR antibody)
Description: The following protocol describes the reagents and procedures used to analyze protein tyrosine kinase activity on the EGFR protein.
2. SUMO1 monoclonal anti-EGFR antibody
All of the following steps are conducted at room temperature unless it is specifically indicated. All ELISA plate washing is by rinsing 4× with TBST.
1. Coat Corning 96 well ELISA plates with 0.5 μ/well of SUMO1 in a volume of 100 μL PBS. Store overnight at 4° C.
2. Remove unbound SUMO1 by inverting plate to remove liquid. Wash plates with distilled water. Pat plate on a paper towel to remove excess liquid and bubbles
3. Add 150 μL of Blocking Buffer to each well. Incubate while shaking on a microliter plate shaker at room temperature for 30 min.
4. Wash 3× with deionized water, then once with TBST. Pat plate on a paper towel to remove excess liquid and bubbles.
5. Dilute lysate in PBS (7 μg of lysate/100 μL of PBS).
6. Add 100 μL of diluted lysate to each well. Shake at room temperature for 60 min.
7. Wash as described in step 4.
8. Add 120 μL TBS to ELISA plate containing captured EGFR.
9. Dilute drugs/extracts 1:10 (unless specified otherwise) in TBS in 96-well polypropylene plates.
10. Add 13.5 μL diluted drugs/extracts to ELISA plate.
11. Incubate for 30 minutes while shaking at room temperature.
12. […] Incubate while shaking on a micro-liter plate shaker at room temperature for 5 min.
13. Stop Kinase reaction with the addition of 16.5 μL of 200 mM EDTA pH 8.0 to all wells.
14. Wash 4× with deionized water and twice with TBST.
15. Add 100 μL per well of anti-phosphotyrosine (1:3000 dilution in TBST). Incubate while shaking on a micro-liter plate shaker 30-45 minutes at room temperature while shaking.
16. Wash as described in step 4.
17. Add 100 μL per well of biosource Goat anti-rabbit IgG peroxidase conjugate (1:2000 dilution in TBST). Incubate 30 min. at room temperature while shaking.
18. Wash as described in step 4.
19. Add 100 μL of ABTS/H2O2 solution to each well.
20. Incubate 5 to 15 minutes while shaking. Remove any bubbles.
21. If necessary stop reaction with the addition of 10 μL of 0.2 M HCl/well.
22. Read assay on Dynatech MR7000 ELISA Plate Reader.
as §1

T2 sequence (P00533 25-1210): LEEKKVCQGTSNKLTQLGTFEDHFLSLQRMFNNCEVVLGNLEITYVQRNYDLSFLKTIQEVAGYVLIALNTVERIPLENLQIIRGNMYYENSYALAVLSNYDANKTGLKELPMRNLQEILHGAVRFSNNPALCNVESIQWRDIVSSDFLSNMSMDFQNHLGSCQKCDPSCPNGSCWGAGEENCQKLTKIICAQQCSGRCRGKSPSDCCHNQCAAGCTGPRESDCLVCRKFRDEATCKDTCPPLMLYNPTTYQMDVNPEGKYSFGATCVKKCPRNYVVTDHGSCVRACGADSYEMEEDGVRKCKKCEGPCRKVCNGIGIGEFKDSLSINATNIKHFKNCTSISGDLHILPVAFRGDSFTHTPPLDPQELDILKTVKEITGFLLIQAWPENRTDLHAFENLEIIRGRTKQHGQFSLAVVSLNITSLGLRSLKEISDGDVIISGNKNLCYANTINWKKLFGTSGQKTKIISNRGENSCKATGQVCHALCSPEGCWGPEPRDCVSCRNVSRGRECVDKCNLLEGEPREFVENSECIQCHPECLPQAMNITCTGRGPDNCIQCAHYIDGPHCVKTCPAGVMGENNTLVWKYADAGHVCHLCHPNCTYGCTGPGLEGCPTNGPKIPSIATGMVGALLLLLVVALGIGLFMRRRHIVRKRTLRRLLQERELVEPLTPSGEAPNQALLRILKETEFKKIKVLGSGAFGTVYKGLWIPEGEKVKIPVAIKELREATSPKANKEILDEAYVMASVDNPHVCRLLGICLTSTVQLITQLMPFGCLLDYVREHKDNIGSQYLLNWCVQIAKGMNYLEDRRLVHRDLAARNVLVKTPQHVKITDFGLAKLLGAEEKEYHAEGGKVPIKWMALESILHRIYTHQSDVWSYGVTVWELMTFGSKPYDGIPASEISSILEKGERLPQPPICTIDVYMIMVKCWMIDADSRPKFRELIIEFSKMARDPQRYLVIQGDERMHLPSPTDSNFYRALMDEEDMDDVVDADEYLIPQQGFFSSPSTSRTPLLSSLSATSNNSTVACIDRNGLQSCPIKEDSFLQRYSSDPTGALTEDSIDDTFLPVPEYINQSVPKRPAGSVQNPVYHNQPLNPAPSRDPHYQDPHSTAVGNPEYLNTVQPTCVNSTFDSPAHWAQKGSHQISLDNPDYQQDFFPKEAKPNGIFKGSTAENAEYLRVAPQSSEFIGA

Compound	inhibition at 100 µM (src protein kinase) [%]	IC50 (EGFR protein)	IC50 (src protein kinase) [µM]
Cc1ccc2c(c1)/C(=C/c1[nH]c3ccccc3c1C)C(=O)N2 [IN-001, 5-Methyl-3-(3-methyl-1H-indol-2-ylmethylene)-1,3-dihydro-indol-2-one]	-62	> 100 µM	–
Cc1c(/C=C2\C(=O)Nc3ccc(S(N)(=O)=O)cc32)[nH]c2ccccc12 [IN-002, 3-(3-Methyl-1H-indol-2-ylmethylene)-2-oxo-2,3-dihydro-1H-indole-5-sulfonic acid amide]	-3.5	> 100 µM	–
Cc1c(/C=C2\C(=O)Nc3ccc(C(=O)O)cc32)[nH]c2ccccc12 [IN-005, 3-(3-Methyl-1H-indol-2-ylmethylene)-2-oxo-2,3-dihydro-1H-indole-5-carboxylic acid]	–	8.2 µM	–
CC(=O)c1ccc2c(c1)C(=Cc1[nH]c3ccccc3c1C)C(=O)N2 [IN-006, 5-Acetyl-3-(3-methyl-1H-indol-2-ylmethylene)-1,3-dihydro-indol-2-one]	–	> 100 µM and 30.8 µM	> 100
CC(=O)c1ccc2c(c1)C(=Cc1cc3ccccc3[nH]1)C(=O)N2 [IN-007, 5-Acetyl-3-(1H-indol-2-ylmethylene)-1,3-dihydro-indol-2-one]	12.4	> 100 µM	–
NS(=O)(=O)c1ccc2c(c1)/C(=C/c1cc3ccccc3[nH]1)C(=O)N2 [IN-008, 3-(1H-Indol-2-ylmethylene)-2-oxo-2,3-dihydro-1H-indole-5-sulfonic acid amide]	-11	> 100 µM	–
Nc1ccc2c(c1)/C(=C/c1cc3ccccc3[nH]1)C(=O)N2 [IN-009, 5-Amino-3-(1H-indol-2-ylmethylene)-1,3-dihydro-indol-2-one]	–	> 100 µM	9
O=C1Nc2ccc(C(=O)O)cc2/C1=C/c1cc2ccccc2[nH]1 [IN-010, 3-(1H-Indol-2-ylmethylene)-2-oxo-2,3-dihydro-1H-indole-5-carboxylic acid]	36.4	> 100 µM	–
O=C1Nc2cc(Cl)ccc2/C1=C/c1cc2ccccc2[nH]1 [IN-011, 6-Chloro-3-(1H-indol-2-ylmethylene)-1,3-dihydro-indol-2-one]	-38.5	> 100 µM	–
O=C1Nc2ccccc2/C1=C/c1cc2ccccc2[nH]1 [IN-012, 3-(1H-Indol-2-ylmethylene)-1,3-dihydro-indol-2-one]	-12	> 100 µM	–
O=C1Nc2ccc(Cl)cc2/C1=C/c1cc2ccccc2[nH]1 [IN-013, 5-chloro-3-(1H-indol-2-ylmethylene)-1,3-dihydro-indol-2-one]	-0.6	> 100 µM	–
Cc1c(/C=C2\C(=O)Nc3ccccc32)[nH]c2ccccc12 [IN-016, 3-(3-Methyl-1H-indol-2-ylmethylene)-1,3-dihydro-indol-2-one]	20.2	> 100 µM	–
Cc1c(/C=C2\C(=O)Nc3ccc(Cl)cc32)[nH]c2ccccc12 [IN-017, 5-Chloro-3-(3-methyl-1H-indol-2-ylmethylene)-1,3-dihydro-indol-2-one]	21.4	> 100 µM	–
Cc1c(/C=C2\C(=O)Nc3ccc(Br)cc32)[nH]c2ccccc12 [IN-018, 5-Bromo-3-(3-methyl-1H-indol-2-ylmethylene)-1,3-dihydro-indol-2-one]	19.5	17.8 µM and > 100 µM	–
Cc1cccc2c1/C(=C/c1[nH]c3ccccc3c1C)C(=O)N2 [IN-019, 4-Methyl-3-(3-methyl-1H-indol-2-ylmethylene)-1,3-dihydro-indol-2-one]	-6.5	> 100 µM	–
